# From patent US8993527B2, “Methods, compositions, and formulations for preventing or reducing adverse effects in a patient” (Pericor Therapeutics, Inc., priority 2005, dated 2015)
# Structures can show the parent of a compound that is named as a salt.
# Columns and labels:
# [1] = molecular target: T1, NBTI-specific adenosine transport site (UniProt O54698); assay: [3H]-NBTI binding assay; settings: read-out: ED50 (50% displacement of bound [3H]-NBTI); 0.5 mg neuronal membrane protein, 0.5 nM [3H]-NBTI, 30 minutes
# T1 sequence (O54698 1-457): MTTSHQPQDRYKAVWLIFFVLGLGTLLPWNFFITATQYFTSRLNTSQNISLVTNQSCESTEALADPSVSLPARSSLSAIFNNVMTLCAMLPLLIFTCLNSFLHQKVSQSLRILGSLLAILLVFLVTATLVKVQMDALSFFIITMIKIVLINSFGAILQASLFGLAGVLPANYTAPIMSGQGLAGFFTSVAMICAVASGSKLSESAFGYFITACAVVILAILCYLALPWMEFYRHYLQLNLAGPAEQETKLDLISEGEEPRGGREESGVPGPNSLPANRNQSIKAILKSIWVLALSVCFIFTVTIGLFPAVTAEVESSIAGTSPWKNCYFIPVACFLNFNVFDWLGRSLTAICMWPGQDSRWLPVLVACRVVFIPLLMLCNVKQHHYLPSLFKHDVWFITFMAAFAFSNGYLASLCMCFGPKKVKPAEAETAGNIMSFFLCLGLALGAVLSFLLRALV
# Method: Increasing concentrations of the test compounds were incubated for 30 minutes with 0.5 mg neuronal membrane protein together with 0.5 nM [^3 H]-NBTI in a Tris buffer (pH 7.4) at room temperature. The assays were quenched and membranes collected by rapid filtration. Filters were then solubilized and radioactivity determined by scintillation counting.
# [2] = tested on: platelet aggregation in human whole blood; assay: Inhibition of platelet aggregation in human whole blood; type: cell-based; settings: 10 minutes at 37° C., 10 µM adenosine added, ADP (6-25 μM)
# Method: Whole blood was drawn from healthy donors and collected in 0.1 vol. of sodium citrate to prevent coagulation. Platelet aggregation was measured by the impedance technique using a Whole Blood Aggregometer. The test compounds were incubated in whole blood for 10 minutes at 37° C. and 10 µM adenosine was added 5 minutes before eliciting aggregation. Aggregation was induced by addition of ADP (6-25 μM) at the minimum concentration inducing full aggregation in untreated controls.
# [3] = tested on: coronary endothelial cells; assay: Inhibition of adenosine utilization in cell culture; type: cell-based; settings: 1 μM [3H] adenosine, 15 minutes; for inhibition at 5 µM / inhibition at 50 µM: Endothelial cell
# Method: In this assay, endothelial cells were incubated with 5 μM or 50 μM of the test compound together with 1 μM [^3H] adenosine for 15 minutes. Inhibition of adenosine utilization was determined by measuring the concentration of extracellular adenosine by scintillation counting following separation by thin layer chromatography (TLC).
# [4] = tested on: longitudinal muscle from the guinea pig ileum; assay: Inhibition of stimulated contraction in isolated ileum; settings: electrically stimulated guinea pig ileum muscle
# Excerpt: These are detailed in Table II.
EC50 [1],Molecule,inhibition at 5 µM ([3]; 5 μM),inhibition at 50 µM ([3]; 50 μM),further results
2 µM,"Nc1c(C(=O)NCCc2ccc([N+](=O)[O-])cc2)ncn1C1OC(CO)C(O)C1O [Compound No. 59 (1-506), 5-Amino-1-β-D-ribofuranosyl-imidazole-4-N→2-(4-nitrophenyl)ethyl carboxamide]",,,"IC50 ([2]; Homo sapiens, Platelet, 10 min): 70 µM"
72 µM,"Nc1c(C(=O)NCc2ccc(Cl)cc2Cl)ncn1C1OC(CO)C(O)C1O [Compound No. 25 (1-360), 5-amino-1-β-D-ribofuranosylimidazole-4-N-[(2,4-dichlorophenyl)methyl]carboxamide]",21 ± 1%,56 ± 2%,IC50 ([4]; Cavia porcellus): 20 µM
,[N-]=[N+]=NC[C@H]1O[C@@H](n2cnc(C(=O)NCc3ccc([N+](=O)[O-])cc3)c2N)[C@H](O)[C@@H]1O [Compound No. 71 (1-562)],,,IC50 [2]: 40 µM; Inhibition of Adenosine Utilization (%) ([3]; 5 μM): 10 ± 3%; Inhibition of Adenosine Utilization (%) ([3]; 50 μM): 31 ± 11%
32 µM,"Nc1c(C(=O)NCc2ccc(Br)cc2)ncn1C1OC(CO)C(O)C1O [Compound No. 56 (1-487), 5-Amino 1-β-D-ribofuranosyl-imidazole-4-N-[(4-bromophenyl)methyl]carboxamide]",55 ± 7%,65 ± 9%,"IC50 ([2]; Homo sapiens, Platelet, 10 min): 75 µM"
8 µM,"Nc1c(C(=O)NCc2ccc([N+](=O)[O-])cc2)ncn1C1OC(CI)C(O)C1O [46 (1-445), 5-Amino-1-(5-iodo-5-deoxy-β-D-ribofuranosyl)imidazole-4-N-[(4-nitrophenyl)methyl]carboxamide]",19 ± 4%,30 ± 9%,
225 µM,"Cc1ccc(CNC(=O)c2ncn(C3OC(CO)C(O)C3O)c2N)cc1 [Compound No. 30 (1-388), 5-amino-1-β-D-ribofuranosylimidazole-4-N-[(4-methylphenyl)methyl]carboxamide]",21 ± 1%,49 ± 4%,IC50 ([4]; Cavia porcellus): 20 µM
,"Nc1c(C(=O)NCc2cccc(Cl)c2)ncn1C1OC(CO)C(O)C1O [Compound No. 35 (1-355), 5-amino-1-β-D-ribofuranosyl-imidazole-4-N[(3-chlorophenyl)methyl]carboxamide]",,,IC50 ([4]; Cavia porcellus): 60 µM
,[N-]=[N+]=NCC1OC(n2cnc(C(=O)NCc3ccc(Cl)cc3)c2N)C(O)C1O (stereo not shown) [Compound No. 52 (1-467)],,,"IC50 ([2]; Homo sapiens, Platelet, 10 min): 480 µM"
71 µM,"NC(=O)c1nc(Sc2ccccc2)n([C@@H]2O[C@H](CO)[C@@H](O)[C@H]2O)c1N [Compound No. 43 (1-432), 5-Amino-2-thiophenyl-1-β-D-ribofuranosylimidazole-4-carboxamide]",,,IC50 [2]: 620 µM; IC50 [4]: 200 µM
28 µM,"CC(NC(=O)c1ncn(C2OC(CO)C(O)C2O)c1N)c1ccc([N+](=O)[O-])cc1 [50 (1-459), (S)-5-Amino-1-β-D-ribofuranosylimidazole-4-N-[(4-nitrophenyl)ethyl]carboxamide]",,,
28 µM,"CSC[C@H]1O[C@@H](n2cnc(C(N)=O)c2N)[C@H](O)[C@@H]1O [Compound No. 54 (1-483), 5-Amino-1-(5-deoxy-5-methylthio-β-D-ribofuranosyl)imidazole-4-carboxamide]",,,
3 µM,"Nc1c(C(=O)NCc2ccc([N+](=O)[O-])cc2)ncn1C1OC(CO)C(O)C1O [Compound No. 23 (1-343), 5-Amino-1-β-D-ribofuranosyl-imidazole-4-N-[(4-nitrophenyl)methyl]carboxamide]",27 ± 4%,63 ± 2%,"IC50 ([2]; Homo sapiens, Platelet, 10 min): 38 µM; IC50 ([4]; Cavia porcellus): 3 µM"
600 µM,"COc1ccc(CNC(=O)c2ncn(C3OC(CO)C(O)C3O)c2N)cc1 [Compound No. 39 (1-390), 5-Amino-1-β-D-ribofuranosyl-imidazole-4-N-[p-methoxybenzyl]carboxamide]",7 ± 4%,29 ± 1%,IC50 ([4]; Cavia porcellus): 500 µM
,NC[C@H]1O[C@@H](n2cnc(C(=O)NCc3ccc([N+](=O)[O-])cc3)c2N)[C@H](O)[C@@H]1O [Compound No. 72 (1-563)],,,IC50 [2]: 300 µM
7 µM,"CC(NC(=O)c1ncn(C2OC(CO)C(O)C2O)c1N)c1ccc([N+](=O)[O-])cc1 [49 (1-453), (R)-5-Amino-1-β-D-ribofuranosylimidazole 4-N-[1-4-nitrophenyl)ethyl]carboxamide]",30 ± 4%,33 ± 8%,
17 µM,5-Amino-4-[1-[4-(4-nitrophenyl)]piperazinocarbamoyl]-1-1-β-D-ribofurano sylimidazole [Compound No. 60 (1-508)],,,
,"NC(=O)c1ncn([C@@H]2O[C@H](CCl)[C@@H](O)[C@H]2O)c1N [Compound No. 26 (1-332), 5-amino-1-(5-chloro-5-deoxy-β-D-ribofuranosyl)imidazole-4-carboxamide]",,,IC50 ([4]; Cavia porcellus): 200 µM
,"CN(C)c1ccc(CNC(=O)c2ncn([C@@H]3O[C@H](CO)[C@@H](O)[C@H]3O)c2N)cc1 [41 (1-396), 5-Amino-1-β-D-ribofuranosylimidazole-4-N(4-dimethylaminobenzyl)-carboxamide hydrochloride]",,,IC50 [4]: 100 µM
,"Nc1c(C(=O)NCc2cccc(Cl)c2)ncn1[C@H]1O[C@H](CO)[C@@H](O)[C@H]1O [Compound No. 24 (1-354), 5-Amino-1-α-D-ribofuranosylimidazole-4-N-[(3-chlorophenyl)methyl]carboxamide]",,,IC50 [4]: 400 µM
90 µM,"Nc1c(C(=O)NC2CC3CCC2C3)ncn1C1OC(CO)C(O)C1O [Compound No. 45 (1-438), 5-Amino-1-β-D-ribofuranosylimidazole-4-N-(2-endo-norbornyl)carboxamide]",,,IC50 ([4]; Cavia porcellus): 100 µM
22 µM,"Nc1c(C(=O)N2CCc3ccccc32)ncn1C1OC(CO)C(O)C1O [Compound No. 48 (1-452), 5-Amino-1-β-D-ribofuranosyl-imidazole-4-N-indolinylcarboxamide]",23 ± 3%,25 ± 2%,
80 µM,"Nc1c(C(=O)Nc2ccc([N+](=O)[O-])cc2)ncn1C1OC(CO)C(O)C1O [Compound No. 58 (1-489), 5-Amino-1-β-D-ribofuranosylimidazole-4-N-(4-nitrophenyl)carboxamide]",,,
,"Nc1c(C(=O)NCc2ccc(S(N)(=O)=O)cc2)ncn1[C@@H]1O[C@H](CO)[C@@H](O)[C@H]1O [Compound No. 75 (1-577), 5-Amino-1-β-D-ribofuranosylimidazole-4-N-[(4-sulfamoylphenyl)methyl]carboxamide]",,,Inhibition of Adenosine Utilization (%) ([3]; 5 μM): 8 ± 0%; Inhibition of Adenosine Utilization (%) ([3]; 50 μM): 30 ± 3%
,"Nc1c(C(=O)NCc2cccc(I)c2)ncn1C1OC(CO)C(O)C1O [Compound No. 44 (1-434), 5-Amino 1-β-D-ribofuranosyl-imidazole-4-N-[(3-iodophenyl)methyl]carboxamide]",,,IC50 ([4]; Cavia porcellus): 20 µM
,"Nc1c(C(=O)NC[C@H](O)c2ccc(O)c(O)c2)ncn1[C@@H]1O[C@H](CO)[C@@H](O)[C@H]1O [42 (1-431), (R)-5-Amino-1-β-D-ribofuranosylimidazole-4-N-[2-hydroxy-2-(3,4-dihydroxyphenyl)ethyl]carboxamide]",,,IC50 [4]: 6 µM
15 µM,"Nc1c(C(=O)NCc2cccc([N+](=O)[O-])c2)ncn1C1OC(CO)C(O)C1O [Compound No. 28 (1-348), 5-amino-1-β-D-ribofuranosylimidazole-4-N-[(3-nitrophenyl)methyl]carboxamide]",17 ± 3%,47 ± 2%,"IC50 ([2]; Homo sapiens, Platelet, 10 min): 180 µM"
,Nc1c(C(=O)NCCCc2ccc([N+](=O)[O-])cc2)ncn1[C@@H]1O[C@H](CO)[C@@H](O)[C@H]1O [Compound No. 73 (1-566)],,,Inhibition of Adenosine Utilization (%) ([3]; 5 μM): 16 ± 0%; Inhibition of Adenosine Utilization (%) ([3]; 50 μM): 33 ± 9%

Molecule,EC50 [1],inhibition at 5 µM ([3]; 5 μM),inhibition at 50 µM ([3]; 50 μM),further results
"C[C@H]1O[C@@H](n2cnc(C(=O)NCc3ccc(Cl)cc3)c2N)[C@H](O)[C@@H]1O [Compound No. 61 (1-509), 5-Amino-1-(5-deoxy-β-D-ribofuranosyl)imidazole-4N-[(4-chlorophenyl)methyl]carboxamide]",32 µM,,,IC50 [2]: 171 µM; Inhibition of Adenosine Utilization (%) ([3]; 5 μM): 37 ± 28%; Inhibition of Adenosine Utilization (%) ([3]; 50 μM): 72 ± 5%
